Assay results reported in US20080039434A1, “Treatment of Interstitial Cystitis with Vitamin D Compounds” (BioXell S. p.A., priority 2004, published 2008).
Several values for one entry are separate records, joined by “and”; a condition that tells them apart may be missing. Equal values may be shown once.

Experiments:
[1] = test system: rats with CYP-induced cystitis; assay: Cystometry in conscious rats with cyclophosphamide (CYP) induced chronic IC, Compound A; type: in vivo, rat; set-up: Bl. Cap. / FP / TP / MP / amplitude of NVBC: unit not given here; conditions: Compound A oral 0.1 μg/kg daily for 14 days
Text: The rat model of chemical cystitis induced by intraperitoneal injection of CYP has been Well accepted. CYP is used in clinical practice in the treatment of a number of malignant tumors. One of its metabolites, acrolein, is excreted in urine in large concentrations causing hemorrhagic cystitis associated with symptoms of urinary frequency, urgency and pelvic pain. The inflammatory process is characterized by changes in gross histology of bladder, increase in number and distribution of inflammatory cell infiltrates (mast cells, macrophage, PMNs), cyclo-oxygenase-2 expression and prostaglandin production, growth factor and cytokine production. The rat model of chemical cystitis closely resembles interstitial cystitis, a chronic, painful urinary bladder syndrome and has been used for the testing of therapeutic agents in the past.
This model was used to test the effects of oral administration of 1,25-dihydroxyvitamin D3 analogue in rats with CYP-induced cystitis. The effects of the treatment on the cystometric parameters in a conscious freely moving rat with CYP-induced cystitis were monitored. The following cystometric parameters were recorded in each animal: • bladder capacity • filling pressure (pressure at the beginning of the bladder filling) • threshold pressure (bladder pressure immediately prior to micturition) • micturition pressure (the maximal bladder pressure during micturition) • presence or absence of non-voiding bladder contractions (increases in bladder pressure of at least 10 cm H2O without release of urine) • amplitude of non-voiding bladder contraction.
Animals: Wistar female rats, age 8 weeks, weighing 125-175 g were used. […] Following recovery all animals received three intraperitoneal injections of CYP and subsequently were divided into the treatment and sham control groups.
Treatment group: Rats treated with oral 1,25-dihydroxyvitamin D3 analog (1,3-Di-O-acetyl-1,25-dihydroxy-16,23Z-diene-26,27-hexafluoro-19-nor-cholecalciferol) “Compound A” for 14 days (daily dose of 0.1 μg/kg)
Cystometry was performed 24 hours following the last dose of the drug or vehicle on awake freely moving animals.
A lower midline abdominal incision was performed under general inhalation anesthesia (isoflurine with O2) and polyethylene tubing (PE-50, Clay Adams, Parsippany, N.J.) with the end flared by heat was inserted into the dome of the bladder and secured in place with a 6-0 prolene purse string suture. The distal end of the tubing was heat-sealed, tunneled subcutaneously and externalized at the back of the neck, out of the animal's reach. Abdominal and neck incisions were closed with 4-0 nylon sutures.
Following recovery (5 days) subject animals underwent three intraperitoneal injections of CYP (Sigma Chemical, St. Luis, Mo.; 75 mg/kg each, intraperitoneal) over the period of nine days. On the tenth day following the first CYP injection the sham control animals received the vehicle only, whereas the experimental group were treated with the 1,25-dihydroxyvitamin D3 analogue 1,3-Di-O-acetyl-1,25-dihydroxy-16,23Z-diene-26,27-hexafluoro-19-nor-cholecalciferol “Compound A” (delivered orally using gavage). Two weeks following the initiation of the treatment animals underwent a conscious cystometrogram to assess the function of the urinary bladder.
An animal was placed unrestrained in a cage and the catheter was connected via a T-tube to a pressure transducer (Grass® Model PT300, West Warwick, R.I.) and microinjection pump (Harvard Apparatus 22, South Natick, Mass.). A 0.9% saline solution was infused at room temperature into the bladder at a rate of 10 ml/hour. […]. At least three reproducible micturition cycles were recorded after the initial stabilization period of 25-30 minutes.

total IgE = assay: Serum total IgE ELISA, allergic IC in mice; type: in vivo, mouse; conditions: 75 ug/kg oral vs vehicle; ovalbumin-sensitized BALB/c mice
Description: Mice (BALB/c, females 8 weeks old, weight 18-20 g, Charles River, Calco ITA) were sensitized by injecting 10 ug/mouse of chicken ovalbumin from Sigma (OVA, grade V) in the presence of 4 mg of alum (SERVA, Germany) by intraperitoneal injection, once a week for 4 weeks. This induces a sustained level of IgE detectable in serum.
One or two weeks after the last immunization boost, sensitized mice were anesthetized (1.5% Isoflurane) and then trans-urethrally catheterized (24 gauge, ¾ in.; Angiocath, Becton-Dickson). Slight digital pressure was applied the lower abdomen to drain the urine.
The urinary bladders were instilled with either 150 ul of either saline or OVA alone, (1 mg/150 ul) infused at a slow rate to avoid trauma and vesico-ureteral reflux and repeated twice within a 30-min interval with the syringe kept in place on the catheter for at least 30 min. Intravesical challenge was repeated 7-10 days after the first one with the same procedure. […]
Serum total IgE levels were measured by using a commercially available kit (BD Opteia, Mouse IgE ELISA Set Cat. No. 555248) and following manufacturer's instructions. […] After reaction stopping (H2SO4 1M, 50 ul/well) absorbance at 450 nm was recorded within 30 minutes.

Compound	Bl. Cap. ([1]; CYP cystitis, individual rats RB7, RB13, RB15, three micturition cycles each)	amplitude of NVBC ([1]; individual rats, three micturition cycles each)	FP ([1]; filling pressure, individual rats, three micturition cycles each)	MP ([1]; micturition pressure, individual rats, three micturition cycles each)	# of NVBC ([1]; non-voiding bladder contractions, individual rats, three micturition cycles each)	TP ([1]; threshold pressure, individual rats, three micturition cycles each)	total amount of IgE in serum (total IgE)
CC(=O)OC1C/C(=C/C=C2\CCC[C@]3(C)C(C(C)C/C=C\C(O)(C(F)(F)F)C(F)(F)F)=CCC23)C[C@@H](OC(C)=O)C1 (stereo partly shown) [Compound A, 1,3-Di-O-acetyl-1,25-dihydroxy-16,23Z-diene-26,27-hexafluoro-19-nor-cholecalciferol]	1.9 and 1.3 (2×) and 2.5 and 1.5 and 0.7 (2×) and 0.8 and 1.4	10 and 11 (2×) and 0 (6×)	15 and 14 (3×) and 12 and 11 and 10 and 13 (2×)	105 and 97 (2×) and 90 and 100 and 108 and 98 and 101 and 104	4 and 8 (2×) and 0 (6×)	16 and 17 and 14 (4×) and 12 and 11 and 15	
C=C1/C(=C\C=C2/CCC[C@]3(C)C([C@@H](C)C/C=C/C(O)(CC)CC)=CC[C@@H]23)C[C@@H](O)C[C@@H]1F [Compound B, 1-alpha-fluoro-25-hydroxy-16,23E-diene-26,27-bishomo-20-epi-cholecalciferol]							no significant changes
